Experimental data published in US9102712B2, “Dendrimeric peptides, pharmaceutical compositions and methods of using the same” (New York University, priority 2010, dated 2015).
In brackets after ≈: the same amount, converted by molar mass. Square brackets hold non-standard residues; d marks the D form. Side chains are listed from the residue outwards. Peptide text beside a SMILES is read from it. * marks the point of attachment. ξ: configuration not given here. Lys(α,ε-(ArgTrp)2) = N=C(N)NCCC[C@H](N)C(=O)N[C@@H](Cc1c[nH]c2ccccc12)C(=O)NCCCC[C@H](NC(=O)[C@H](Cc1c[nH]c2ccccc12)NC(=O)[C@@H](N)CCCNC(=N)N)C(=O)*; X1 = CC(C)(C)c1cc(C(C)(C)C)c2[nH]c(C(C)(C)C)c(CC(NC(=O)[C@@H](N)CCCNC(=N)N)C(=O)*)c2c1; Trp(2,5,7-tBu3) = CC(C)(C)c1cc(C(C)(C)C)c2[nH]c(C(C)(C)C)c(C[C@H](N)C(=O)O)c2c1; ξTrp(2,5,7-tBu3) = CC(C)(C)c1cc(C(C)(C)C)c2[nH]c(C(C)(C)C)c(CC(N)C(=O)O)c2c1; βAla = NCCC(=O)O

What was measured:
E. coli (D31) = assay: Antibacterial broth microdilution, E. coli; format: cell-based; settings: for E. Coli HI (hemolytic index): HI=HD50/IC50, E. coli; for IC50 E. Coli D31 / E. Coli IC50: 50% inhibition of growth, MH broth, 18 hrs at 37° C.; for IC50 E. Coli D31: Table 3; for E. Coli IC50: Table 1
Method: (§1) The antibacterial activity of each dendrimer peptide was tested by following standard broth microdilution protocols recommended by the National Committee for Clinical Laboratory Standard (NCCLS 2004). Antibacterial testing was carried out on gram-negative bacteria E. coli (D31) and gram-positive bacteria S. aureus in liquid media Mueller Hinton (MH) Brooth according to literature procedures. Dendrimers were dissolved in PBS buffer (high salt, 150 mM NaCl; low salt, 75 mM NaCl), pH 7.4 to make series of stocks of 2-fold dilution. Cultures were grown overnight on Mueller Hinton (MH) agar plates, and 3 to 5 uniform colonies of each organism were transferred with an inoculating loop to test tubes containing MH broth, and incubated at 37° C. overnight, then diluted until the turbidity matched that of the 0.5 McFarland standard (approximately 1.5×10^8 cells/mL). The resulting solutions were further diluted to give approximately 2×10^4-2×10^5 CFU/mL. 100 μL of the bacterial inoculums were incubated in 96-well plates with varying volumes of stock solution and PBS buffer to bring the total volume to 200 μL. Solutions containing the same volumes of PBS buffer and MH Broth, with and without bacteria were used as controls. After these plates were incubated with shaking for 18 hrs at 37° C. to ensure the cultures had reached log phase growth, the absorbance readings were recorded at a wavelength of 600 nm using a Absorbance Microplate Reader BIO-TEK ELX800. The 18-hour absorbance data were used to calculate the percent inhibition for each test condition. All assays were carried out in triplicate. The experimental data were fitted to sigmoidal dose-response curves using GraphPad Prism (GraphPad Software Inc., San Diego, Calif., USA).

S. aureus = format: cell-based; settings: for S. Aureus IC50: 18 h; for S. Aureus HI (hemolytic index): HI=HD50/IC50, S. aureus
Method: as §1

fresh sheep RBC = format: cell-based; settings: red cells of sheep, 1 h
Method: Hemolytic activity of dendrimeric compounds were assessed on fresh sheep RBC (Fitzgerald, Inc., MA). Dendrimer concentrations corresponding to 50% hemolysis were used as hemolytic dose (HD50) determined from dose-response curve. The fresh sheep RBC was washed with PBS buffer (thrice) and aliquots of cell suspension were mixed in eppendorf tubes with varying volumes of stocks and buffer for a total volume of 400 μL. These tubes were incubated at 37° C. for 1 hr, and then spun down at 3,000 rpm for 5 mins. The resulting supernatant was trasferred to a 96-well plate and the absorbances at 540 nm were measured in an Absorbance Microplate Reader BIO-TEK ELX800. Zero hemolysis and 100% hemolysis controls were obtained by incubating the cells with buffer and 1% Triton X-100, respectively. Hemolytic index (HI) was defined as HI=HD50/IC50 (Table 1 and 3).

MRSA = format: cell-based, Methicillin-resistant Staphylococcus aureus; settings: 18 h
Method: as §1

B. Subtilis = format: cell-based; settings: 18 h

Row | Compound | E. Coli HI (hemolytic index) (E. coli (D31)) | S. Aureus IC50 (S. aureus) | S. Aureus HI (hemolytic index) (S. aureus) | Hemolysis HD50 (fresh sheep RBC) | IC50 E. Coli D31 (E. coli (D31)) | IC50 MRSA (MRSA) | IC50 B. Subtilis (B. Subtilis) | HD50 Hemolysis (fresh sheep RBC) | E. Coli IC50 (E. coli (D31))
1 | N=C(N)NCCC[C@H](N)C(=O)N[C@@H](Cc1c[nH]c2ccccc12)C(=O)NCCCC[C@H](NC(=O)[C@H](Cc1c[nH]c2ccccc12)NC(=O)[C@@H](N)CCCNC(=N)N)C(=O)NCCCC[C@H](NC(=O)[C@H](CCCCNC(=O)[C@H](Cc1c[nH]c2ccccc12)NC(=O)[C@@H](N)CCCNC(=N)N)NC(=O)[C@H](Cc1c[nH]c2ccccc12)NC(=O)[C@@H](N)CCCNC(=N)N)C(=O)NCCC(N)=O [(RW)4D, reference compound] (H-RWK([Trp-Arg])K(Lys(α,ε-(ArgTrp)2))[βAla]-NH2; N-terminus and C-terminus assumed) | 310 | 16 µg/mL | 88 | 1400 µg/mL | – | – | – | – | –
2 | N=C(N)NCCC[C@H](NC(=O)[C@H](Cc1c[nH]c2ccccc12)NC(=O)[C@@H](N)CCCNC(=N)N)C(=O)NCCCC[C@H](NC(=O)[C@H](CCCNC(=N)N)NC(=O)[C@H](Cc1c[nH]c2ccccc12)NC(=O)[C@@H](N)CCCNC(=N)N)C(=O)NCCC(N)=O [Dendrimer 2D-04, reference compound] (H-RWRK([Arg-Trp-Arg])[βAla]-NH2) | – | – | – | – | 6.8 µg/mL (≈ 5.6 µM) | 56.6 µg/mL (≈ 46.6 µM) | 6.1 µg/mL (≈ 5.03 µM) | 3428 µg/mL | –
3 | CC(C)(C)c1cc(C(C)(C)C)c2[nH]c(C(C)(C)C)c(CC(NC(=O)[C@@H](N)CCCNC(=N)N)C(=O)N[C@@H](CCCNC(=N)N)C(=O)NCCCC[C@H](NC(=O)[C@H](CCCNC(=N)N)NC(=O)C(Cc3c(C(C)(C)C)[nH]c4c(C(C)(C)C)cc(C(C)(C)C)cc34)NC(=O)[C@@H](N)CCCNC(=N)N)C(=O)NCCC(N)=O)c2c1 (stereo partly drawn) [Dendrimer 2D-24] | – | – | – | – | 0.5 µg/mL (≈ 0.323 µM) | 0.2 µg/mL (≈ 0.129 µM) | 0.8 µg/mL (≈ 0.516 µM) | 48 µg/mL | –
4 | N=C(N)NCCC[C@H](NC(=O)[C@@H](N)Cc1c[nH]c2ccccc12)C(=O)NCCCC[C@H](NC(=O)[C@H](CCCCNC(=O)[C@H](CCCNC(=N)N)NC(=O)[C@@H](N)Cc1c[nH]c2ccccc12)NC(=O)[C@H](CCCNC(=N)N)NC(=O)[C@@H](N)Cc1c[nH]c2ccccc12)C(=O)NCCC(N)=O [Dendrimer 3D-03, reference compound] (H-WRK([Arg-Trp])K([Arg-Trp])[βAla]-NH2) | – | – | – | – | 12.1 µg/mL (≈ 8.82 µM) | >100 µg/mL | 14.3 µg/mL (≈ 10.4 µM) | 3197 µg/mL | –
5 | N=C(N)NCCC[C@H](NC(=O)[C@H](Cc1c[nH]c2ccccc12)NC(=O)[C@@H](N)CCCNC(=N)N)C(=O)NCCCC[C@H](NC(=O)[C@H](CCCCNC(=O)[C@H](CCCNC(=N)N)NC(=O)[C@H](Cc1c[nH]c2ccccc12)NC(=O)[C@@H](N)CCCNC(=N)N)NC(=O)[C@H](CCCNC(=N)N)NC(=O)[C@H](Cc1c[nH]c2ccccc12)NC(=O)[C@@H](N)CCCNC(=N)N)C(=O)NCCC(N)=O [Dendrimer 3D-06, reference compound] (H-RWRK([Arg-Trp-Arg])K([Arg-Trp-Arg])[βAla]-NH2) | – | – | – | – | 1.8 µg/mL (≈ 0.978 µM) | 17.3 µg/mL (≈ 9.4 µM) | 1.9 µg/mL (≈ 1.03 µM) | 2336 µg/mL | –
6 | CC(C)(C)c1cc(C(C)(C)C)c2[nH]c(C(C)(C)C)c(C[C@H](N)C(=O)N[C@@H](CCCNC(=N)N)C(=O)NCCCC[C@H](NC(=O)[C@H](CCCCNC(=O)[C@H](CCCNC(=N)N)NC(=O)[C@@H](N)Cc3c[nH]c4ccccc34)NC(=O)[C@H](CCCNC(=N)N)NC(=O)[C@@H](N)Cc3c[nH]c4ccccc34)C(=O)NCCC(N)=O)c2c1 [Dendrimer 3D-13] (H-WRK([Arg-Trp])K([Arg-Trp(2,5,7-tBu3)])[βAla]-NH2) | – | – | – | – | 1.0 µg/mL (≈ 0.649 µM) | 1.7 µg/mL (≈ 1.1 µM) | 1.9 µg/mL (≈ 1.23 µM) | 270 µg/mL | –
7 | CC(C)(C)c1cc(C(C)(C)C)c2[nH]c(C(C)(C)C)c(CC(NC(=O)[C@@H](N)CCCNC(=N)N)C(=O)N[C@@H](CCCNC(=N)N)C(=O)NCCCC[C@H](NC(=O)[C@H](CCCCNC(=O)[C@H](CCCNC(=N)N)NC(=O)[C@H](Cc3c[nH]c4ccccc34)NC(=O)[C@@H](N)CCCNC(=N)N)NC(=O)[C@H](CCCNC(=N)N)NC(=O)[C@H](Cc3c[nH]c4ccccc34)NC(=O)[C@@H](N)CCCNC(=N)N)C(=O)NCCC(N)=O)c2c1 (stereo partly drawn) [Dendrimer 3D-16] (H-RWRK([Arg-Trp-Arg])K([Arg-X1])[βAla]-NH2) | – | – | – | – | 0.4 µg/mL (≈ 0.199 µM) | 5.2 µg/mL (≈ 2.59 µM) | 0.9 µg/mL (≈ 0.448 µM) | 201 µg/mL | –
8 | CC(C)(C)c1cc(C(C)(C)C)c2[nH]c(C(C)(C)C)c(C[C@H](N)C(=O)N[C@@H](CCCNC(=N)N)C(=O)NCCCC[C@H](NC(=O)[C@H](CCCNC(=N)N)NC(=O)[C@@H](N)Cc3c(C(C)(C)C)[nH]c4c(C(C)(C)C)cc(C(C)(C)C)cc34)C(=O)N[C@@H](CCCCNC(=O)[C@H](CCCNC(=N)N)NC(=O)[C@@H](N)Cc3c[nH]c4ccccc34)C(=O)NCCC(N)=O)c2c1 [Dendrimer 3D-23] (H-[Trp(2,5,7-tBu3)]RK([Arg-Trp(2,5,7-tBu3)])K([Arg-Trp])[βAla]-NH2) | – | – | – | – | 2.4 µg/mL (≈ 1.4 µM) | 0.7 µg/mL (≈ 0.41 µM) | 2.1 µg/mL (≈ 1.23 µM) | 99 µg/mL | –
9 | CC(C)(C)c1cc(C(C)(C)C)c2[nH]c(C(C)(C)C)c(CC(NC(=O)[C@@H](N)CCCNC(=N)N)C(=O)N[C@@H](CCCNC(=N)N)C(=O)NCCCC[C@H](NC(=O)[C@H](CCCNC(=N)N)NC(=O)C(Cc3c(C(C)(C)C)[nH]c4c(C(C)(C)C)cc(C(C)(C)C)cc34)NC(=O)[C@@H](N)CCCNC(=N)N)C(=O)N[C@@H](CCCCNC(=O)[C@H](CCCNC(=N)N)NC(=O)[C@H](Cc3c[nH]c4ccccc34)NC(=O)[C@@H](N)CCCNC(=N)N)C(=O)NCCC(N)=O)c2c1 (stereo partly drawn) [Dendrimer 3D-26] (H-R[ξTrp(2,5,7-tBu3)]RK([Arg-X1])K([Arg-Trp-Arg])[βAla]-NH2) | – | – | – | – | 1.4 µg/mL (≈ 0.643 µM) | 0.5 µg/mL (≈ 0.23 µM) | 1.4 µg/mL (≈ 0.643 µM) | 33 µg/mL | –
10 | N=C(N)NCCC[C@H](NC(=O)[C@@H](N)Cc1c[nH]c2ccccc12)C(=O)NCCCC[C@H](NC(=O)[C@H](CCCNC(=N)N)NC(=O)[C@@H](N)Cc1c[nH]c2ccccc12)C(=O)NCCCC[C@H](NC(=O)[C@H](CCCCNC(=O)[C@H](CCCNC(=N)N)NC(=O)[C@@H](N)Cc1c[nH]c2ccccc12)NC(=O)[C@H](CCCNC(=N)N)NC(=O)[C@@H](N)Cc1c[nH]c2ccccc12)C(=O)NCCC(N)=O [Dendrimer 4D-04, reference compound] | – | – | – | – | 4.5 µg/mL (≈ 2.44 µM) | 14.6 µg/mL (≈ 7.93 µM) | 4.2 µg/mL (≈ 2.28 µM) | 1563 µg/mL | –
11 | N=C(N)NCCC[C@H](N)C(=O)N[C@@H](Cc1c[nH]c2ccccc12)C(=O)NCCCN(CCCCN(CCCNC(=O)[C@H](Cc1c[nH]c2ccccc12)NC(=O)[C@@H](N)CCCNC(=N)N)CCCNC(=O)[C@H](Cc1c[nH]c2ccccc12)NC(=O)[C@@H](N)CCCNC(=N)N)CCCNC(=O)[C@H](Cc1c[nH]c2ccccc12)NC(=O)[C@@H](N)CCCNC(=N)N [POPAM-(WR)4, POPAM-(WR—NH2)3] | – | 0.37 ± 0.13 µg/mL | – | 291 µg/mL | – | – | – | – | 0.57 ± 0.12 µg/mL
12 | NCCCC[C@H](N)C(=O)N[C@@H](Cc1c[nH]c2ccccc12)C(=O)NCCN(CCNC(=O)[C@H](Cc1c[nH]c2ccccc12)NC(=O)[C@@H](N)CCCCN)CCNC(=O)[C@H](Cc1c[nH]c2ccccc12)NC(=O)[C@@H](N)CCCCN [TAEA-(WK)3, TAEA-(WK—NH2)3] | 789 | 4.12 ± 0.58 µg/mL | 1316 | 5423 µg/mL | – | – | – | – | 6.87 ± 0.01 µg/mL
